{"source": "paper PMC7714403", "about": "(JCI Insight, 2020)", "experiment_in_all_cases": "KiNativ, MOLM13 live cells", "type_in_all_cases": "cell-based", "key": {"[1]": {"target": "T1, IKKb (Homo sapiens, UniProt O14920)", "T1 sequence (O14920 1-756)": "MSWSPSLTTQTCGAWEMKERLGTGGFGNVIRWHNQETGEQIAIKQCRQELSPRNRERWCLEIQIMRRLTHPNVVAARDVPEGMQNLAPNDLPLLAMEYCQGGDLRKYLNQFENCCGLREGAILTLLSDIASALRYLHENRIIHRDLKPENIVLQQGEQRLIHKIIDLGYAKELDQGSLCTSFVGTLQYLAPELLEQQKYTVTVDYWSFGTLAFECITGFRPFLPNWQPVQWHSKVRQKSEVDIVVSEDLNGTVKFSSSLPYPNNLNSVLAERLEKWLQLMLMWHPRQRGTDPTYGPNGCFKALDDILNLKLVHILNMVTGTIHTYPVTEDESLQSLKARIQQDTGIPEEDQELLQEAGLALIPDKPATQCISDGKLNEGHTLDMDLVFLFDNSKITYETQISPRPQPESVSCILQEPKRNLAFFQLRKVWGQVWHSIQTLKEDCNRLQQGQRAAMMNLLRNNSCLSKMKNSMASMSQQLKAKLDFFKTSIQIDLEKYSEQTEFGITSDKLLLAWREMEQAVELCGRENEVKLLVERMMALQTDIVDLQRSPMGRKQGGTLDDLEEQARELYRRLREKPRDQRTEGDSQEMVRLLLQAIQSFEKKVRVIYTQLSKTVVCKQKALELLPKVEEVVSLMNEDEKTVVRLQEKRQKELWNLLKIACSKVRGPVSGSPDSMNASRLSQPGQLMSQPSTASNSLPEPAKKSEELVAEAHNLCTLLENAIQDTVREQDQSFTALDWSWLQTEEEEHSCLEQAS", "settings": "MOLM-13, 2 h, 100 nM", "method": "(§1) Samples were analyzed by KiNativ in situ kinase profiling by ActivX Biosciences."}, "[2]": {"target": "CDK7 (Homo sapiens, UniProt P50613)", "sequence (P50613 2-346 limits assumed)": "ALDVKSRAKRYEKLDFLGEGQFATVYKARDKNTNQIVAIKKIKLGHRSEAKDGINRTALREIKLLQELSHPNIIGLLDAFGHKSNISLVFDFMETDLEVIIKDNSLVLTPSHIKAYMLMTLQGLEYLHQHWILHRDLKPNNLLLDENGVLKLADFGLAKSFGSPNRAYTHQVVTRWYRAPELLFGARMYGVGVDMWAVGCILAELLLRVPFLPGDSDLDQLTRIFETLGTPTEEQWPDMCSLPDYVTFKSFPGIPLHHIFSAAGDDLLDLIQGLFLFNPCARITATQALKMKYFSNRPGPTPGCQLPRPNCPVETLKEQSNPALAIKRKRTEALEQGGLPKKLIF", "sequence (P51946 whole entry partner)": "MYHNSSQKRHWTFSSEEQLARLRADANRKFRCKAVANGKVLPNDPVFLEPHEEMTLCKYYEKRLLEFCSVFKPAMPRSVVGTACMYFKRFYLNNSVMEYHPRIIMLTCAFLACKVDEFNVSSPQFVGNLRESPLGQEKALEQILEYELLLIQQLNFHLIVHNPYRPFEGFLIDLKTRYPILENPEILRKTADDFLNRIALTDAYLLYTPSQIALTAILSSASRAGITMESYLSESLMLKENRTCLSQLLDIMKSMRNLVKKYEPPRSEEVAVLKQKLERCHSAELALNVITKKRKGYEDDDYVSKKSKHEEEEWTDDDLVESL", "sequence (P51948 whole entry partner)": "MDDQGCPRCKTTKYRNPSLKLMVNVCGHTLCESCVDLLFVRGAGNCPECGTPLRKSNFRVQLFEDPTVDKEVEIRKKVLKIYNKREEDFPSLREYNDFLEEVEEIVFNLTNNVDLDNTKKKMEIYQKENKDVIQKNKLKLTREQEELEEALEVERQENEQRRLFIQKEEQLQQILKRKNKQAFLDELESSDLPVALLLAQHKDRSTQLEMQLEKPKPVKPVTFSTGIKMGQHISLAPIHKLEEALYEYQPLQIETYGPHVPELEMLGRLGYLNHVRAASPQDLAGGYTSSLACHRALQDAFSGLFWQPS", "settings": "MOLM-13; 100 nM, 2 hours; Lys2; read-out: Inhibition vs DMSO", "method": "as §1"}, "[3]": {"target": "FRAP (Homo sapiens, UniProt P42345)", "settings": "MOLM-13; 100 nM, 2 hours; ATP; read-out: Inhibition vs DMSO", "method": "as §1"}, "[4]": {"target": "T2, TLK1 (Homo sapiens, UniProt Q9UKI8)", "T2 sequence (Q9UKI8 1-766)": "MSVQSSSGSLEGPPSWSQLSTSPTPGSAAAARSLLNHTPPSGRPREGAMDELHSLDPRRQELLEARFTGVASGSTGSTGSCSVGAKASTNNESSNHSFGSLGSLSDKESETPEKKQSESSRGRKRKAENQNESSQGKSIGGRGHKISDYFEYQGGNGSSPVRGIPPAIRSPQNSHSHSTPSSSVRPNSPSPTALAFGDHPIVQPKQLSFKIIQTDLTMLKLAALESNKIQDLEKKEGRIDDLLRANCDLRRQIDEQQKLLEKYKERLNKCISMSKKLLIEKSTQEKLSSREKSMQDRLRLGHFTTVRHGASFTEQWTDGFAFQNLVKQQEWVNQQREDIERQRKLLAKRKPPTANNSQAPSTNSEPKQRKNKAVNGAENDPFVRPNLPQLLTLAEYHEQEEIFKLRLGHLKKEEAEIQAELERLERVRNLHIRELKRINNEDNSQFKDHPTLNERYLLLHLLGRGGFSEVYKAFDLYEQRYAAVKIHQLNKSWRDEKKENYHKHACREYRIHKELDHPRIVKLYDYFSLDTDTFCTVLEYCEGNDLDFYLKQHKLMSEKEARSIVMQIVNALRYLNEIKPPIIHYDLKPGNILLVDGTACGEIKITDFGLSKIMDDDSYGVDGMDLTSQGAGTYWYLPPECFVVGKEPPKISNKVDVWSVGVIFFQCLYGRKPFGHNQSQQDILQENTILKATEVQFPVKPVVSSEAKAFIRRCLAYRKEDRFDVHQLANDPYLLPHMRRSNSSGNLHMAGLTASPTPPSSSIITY", "settings": "MOLM-13; 100 nM, 2 hours; Lys2; read-out: Inhibition vs DMSO", "method": "as §1"}, "[5]": {"target": "T3, LATS1 (Homo sapiens, UniProt O95835)", "T3 sequence (O95835 1-1130)": "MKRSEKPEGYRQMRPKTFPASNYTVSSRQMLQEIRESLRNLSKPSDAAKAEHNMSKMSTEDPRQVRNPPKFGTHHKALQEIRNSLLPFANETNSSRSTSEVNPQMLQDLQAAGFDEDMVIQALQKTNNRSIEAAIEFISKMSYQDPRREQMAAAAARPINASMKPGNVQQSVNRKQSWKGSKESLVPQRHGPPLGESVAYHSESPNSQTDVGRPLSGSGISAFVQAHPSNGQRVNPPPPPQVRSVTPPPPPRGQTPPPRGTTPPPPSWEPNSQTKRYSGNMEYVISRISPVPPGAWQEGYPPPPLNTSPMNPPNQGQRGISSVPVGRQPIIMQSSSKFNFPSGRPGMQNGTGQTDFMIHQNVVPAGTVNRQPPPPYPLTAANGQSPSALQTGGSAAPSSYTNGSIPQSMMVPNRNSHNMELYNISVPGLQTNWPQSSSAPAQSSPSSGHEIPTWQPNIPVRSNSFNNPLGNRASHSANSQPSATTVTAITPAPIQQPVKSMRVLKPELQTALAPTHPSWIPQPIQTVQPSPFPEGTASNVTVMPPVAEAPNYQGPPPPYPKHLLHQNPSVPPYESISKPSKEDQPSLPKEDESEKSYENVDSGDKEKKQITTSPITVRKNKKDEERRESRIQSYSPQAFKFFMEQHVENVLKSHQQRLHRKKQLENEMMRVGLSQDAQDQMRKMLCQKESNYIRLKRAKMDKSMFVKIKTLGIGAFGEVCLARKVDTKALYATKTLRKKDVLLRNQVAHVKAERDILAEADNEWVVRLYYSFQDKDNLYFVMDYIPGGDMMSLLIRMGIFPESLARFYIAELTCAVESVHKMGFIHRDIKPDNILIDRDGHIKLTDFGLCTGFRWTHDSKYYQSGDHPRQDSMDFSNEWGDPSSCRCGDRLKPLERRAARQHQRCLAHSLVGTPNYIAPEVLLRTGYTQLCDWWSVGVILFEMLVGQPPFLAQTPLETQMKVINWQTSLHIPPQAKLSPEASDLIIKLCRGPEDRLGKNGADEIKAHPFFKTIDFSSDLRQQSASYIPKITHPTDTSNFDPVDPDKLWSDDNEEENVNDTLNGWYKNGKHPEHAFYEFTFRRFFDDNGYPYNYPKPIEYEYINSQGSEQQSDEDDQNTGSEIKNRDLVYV", "settings": "MOLM-13, 2 h, 100 nM", "method": "as §1"}, "[6]": {"target": "AurB (Homo sapiens, UniProt Q96GD4)", "sequence (Q96GD4 whole entry)": "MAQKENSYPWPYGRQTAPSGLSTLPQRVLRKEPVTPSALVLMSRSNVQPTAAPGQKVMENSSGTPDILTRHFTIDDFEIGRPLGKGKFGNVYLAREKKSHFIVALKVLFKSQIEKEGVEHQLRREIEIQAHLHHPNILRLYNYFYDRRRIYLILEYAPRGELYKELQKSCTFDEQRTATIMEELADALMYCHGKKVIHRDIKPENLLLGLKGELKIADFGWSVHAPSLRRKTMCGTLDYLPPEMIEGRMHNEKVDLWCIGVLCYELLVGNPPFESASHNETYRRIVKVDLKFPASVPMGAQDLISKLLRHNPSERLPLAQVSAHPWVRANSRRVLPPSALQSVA", "settings": "MOLM-13; 100 nM, 2 hours; Lys1; read-out: Inhibition vs DMSO", "method": "as §1"}, "[7]": {"settings": "Lys1, read-out: Inhibition vs DMSO"}, "[8]": {"settings": "Lys2, read-out: Inhibition vs DMSO"}}, "note": "Read-outs that look alike come from different tables or passages of the source.", "data": [{"molecule": "CN1CCN(Cc2ccc(Nc3ncc(Cl)c(Nc4ccccc4S(=O)(=O)N(C)C)n3)cc2)CC1", "note": "[TP-0903]", "values": [{"measurement": "inhibition at 0.1 µM", "setting": "[1]; [7]", "result": -4.8, "unit": "%"}, {"measurement": "inhibition at 0.1 µM", "setting": "[1]; [8]", "result": -10.5, "unit": "%"}, {"measurement": "inhibition at 0.1 µM", "setting": "[2]", "result": 86.1, "unit": "%"}, {"measurement": "inhibition at 0.1 µM", "setting": "[3]", "result": -9.8, "unit": "%"}, {"measurement": "inhibition at 0.1 µM", "setting": "[4]", "result": 16, "unit": "%"}, {"measurement": "inhibition at 0.1 µM", "setting": "[5]; [7]", "result": 6.7, "unit": "%"}, {"measurement": "inhibition at 0.1 µM", "setting": "[5]; [8]", "result": -12.4, "unit": "%"}, {"measurement": "inhibition at 0.1 µM", "setting": "[6]", "result": 60.1, "unit": "%"}]}]}
